From PubChem BioAssay AID2060489 (Molecular Pharmacology Branch, DTP, NCI, 2025)

System: 922993-354-T-J3-PDC complex spheroids, viability
Assay: Anticancer human tumor 922993-354-T-J3-PDC patient-derived endometrial carcinoma cell line growth inhibition [GQUAD]
Conditions: for IC50: curve of first compound; for viability, T/C: stronger effect = lower value
How it was run: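 Viability of tumor cells grown as complex spheroids with endothelial and stromal cells, exposed to drug combinations. Top concentration at or near clinical Cmax (else 10 microM), diluted in half-log increments.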

[1] = second compound 0.0316 µM, first compound 0.0316 µM
[2] = second compound 0.0316 µM, first compound 0.316 µM
[3] = second compound 0.1 µM, first compound 0.0316 µM
[4] = second compound 0.1 µM, first compound 0.316 µM
[5] = second compound 0.316 µM, first compound 0.0316 µM
[6] = second compound 0.316 µM, first compound 0.316 µM
[7] = second compound 1 µM, first compound 0.0316 µM
[8] = second compound 1 µM, first compound 0.316 µM
[9] = second compound 3.16 µM, first compound 0.0316 µM
[10] = second compound 3.16 µM, first compound 0.316 µM
[11] = second compound 10 µM, first compound 0.0316 µM
[12] = second compound 10 µM, first compound 0.316 µM
[13] = second compound 0.0316 µM, first compound 0.1 µM
[14] = second compound 0.0316 µM, first compound 1 µM
[15] = second compound 0.0316 µM, first compound 3.16 µM
[16] = second compound 0.0316 µM, first compound 10 µM
[17] = second compound 0.1 µM, first compound 0.1 µM
[18] = second compound 0.1 µM, first compound 1 µM
[19] = second compound 0.1 µM, first compound 3.16 µM
[20] = second compound 0.1 µM, first compound 10 µM
[21] = second compound 0.316 µM, first compound 0.1 µM
[22] = second compound 0.316 µM, first compound 1 µM
[23] = second compound 0.316 µM, first compound 3.16 µM
[24] = second compound 0.316 µM, first compound 10 µM
[25] = second compound 1 µM, first compound 0.1 µM
[26] = second compound 1 µM, first compound 1 µM
[27] = second compound 1 µM, first compound 3.16 µM
[28] = second compound 1 µM, first compound 10 µM
[29] = second compound 3.16 µM, first compound 0.1 µM
[30] = second compound 3.16 µM, first compound 1 µM
[31] = second compound 3.16 µM, first compound 3.16 µM
[32] = second compound 3.16 µM, first compound 10 µM
[33] = second compound 10 µM, first compound 0.1 µM
[34] = second compound 10 µM, first compound 1 µM
[35] = second compound 10 µM, first compound 3.16 µM
[36] = second compound 10 µM, first compound 10 µM
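Note: spheroids exposed to compounds for seven days.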
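Throughout, for viability, T/C: 100% = DMSO vehicle control viability.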

Cc1[nH]c2ccccc2c1CCNCc1ccc(/C=C/C(=O)NO)cc1 + CN(C)c1ccc(Nc2c3ccc(NC(=O)CCN4CCCC4)cc3nc3cc(NC(=O)CCN4CCCC4)ccc23)cc1
IC50 (second compound 0.0316 µM): > 0.316 µM
IC50 (second compound 0.1 µM): > 0.316 µM
IC50 (second compound 0.316 µM): > 0.316 µM
IC50 (second compound 1 µM): > 0.316 µM
IC50 (second compound 3.16 µM): > 0.316 µM
IC50 (second compound 10 µM): > 0.316 µM
viability, T/C (second compound 0.0316 µM, first compound 0.000999 µM): 104%
viability, T/C (second compound 0.0316 µM, first compound 0.00316 µM): 78.9%
viability, T/C (second compound 0.0316 µM, first compound 0.00999 µM): 91.6%
viability, T/C [1]: 67.8%
viability, T/C (second compound 0.0316 µM, first compound 0.0999 µM): 56.4%
viability, T/C [2]: 62.5%
viability, T/C (second compound 0.1 µM, first compound 0.000999 µM): 73.2%
viability, T/C (second compound 0.1 µM, first compound 0.00316 µM): 85.3%
viability, T/C (second compound 0.1 µM, first compound 0.00999 µM): 94.2%
viability, T/C [3]: 86.2%
viability, T/C (second compound 0.1 µM, first compound 0.0999 µM): 78.1%
viability, T/C [4]: 53.1%
viability, T/C (second compound 0.316 µM, first compound 0.000999 µM): 94.5%
viability, T/C (second compound 0.316 µM, first compound 0.00316 µM): 94.4%
viability, T/C (second compound 0.316 µM, first compound 0.00999 µM): 89.1%
viability, T/C [5]: 93%
viability, T/C (second compound 0.316 µM, first compound 0.0999 µM): 73.1%
viability, T/C [6]: 61.7%
viability, T/C (second compound 1 µM, first compound 0.000999 µM): 70.3%
viability, T/C (second compound 1 µM, first compound 0.00316 µM): 95.9%
viability, T/C (second compound 1 µM, first compound 0.00999 µM): 101%
viability, T/C [7]: 76.1%
viability, T/C (second compound 1 µM, first compound 0.0999 µM): 97%
viability, T/C [8]: 59.5%
viability, T/C (second compound 3.16 µM, first compound 0.000999 µM): 101%
viability, T/C (second compound 3.16 µM, first compound 0.00316 µM): 81.4%
viability, T/C (second compound 3.16 µM, first compound 0.00999 µM): 94.8%
viability, T/C [9]: 82.3%
viability, T/C (second compound 3.16 µM, first compound 0.0999 µM): 78.7%
viability, T/C [10]: 57.4%
viability, T/C (second compound 10 µM, first compound 0.000999 µM): 121%
viability, T/C (second compound 10 µM, first compound 0.00316 µM): 118%
viability, T/C (second compound 10 µM, first compound 0.00999 µM): 106%
viability, T/C [11]: 112%
viability, T/C (second compound 10 µM, first compound 0.0999 µM): 110%
viability, T/C [12]: 61.3%

Nc1ccn(C2OC(CO)C(O)C2(F)F)c(=O)n1 (stereo not drawn) + Cc1cnc(CNC(=O)c2c(=O)c3ccc(N4CCCN(C)CC4)nc3n3c2sc2ccccc23)cn1
IC50 (second compound 0.0316 µM): < 0.0316 µM
IC50 (second compound 0.1 µM): < 0.0316 µM
IC50 (second compound 0.316 µM): < 0.0316 µM
IC50 (second compound 1 µM): < 0.0316 µM
IC50 (second compound 3.16 µM): < 0.0316 µM
IC50 (second compound 10 µM): < 0.0316 µM
viability, T/C [1]: 29.4%
viability, T/C [13]: 28.8%
viability, T/C [2]: 23.6%
viability, T/C [14]: 21.1%
viability, T/C [15]: 23.4%
viability, T/C [16]: 21.7%
viability, T/C [3]: 26.3%
viability, T/C [17]: 23.9%
viability, T/C [4]: 29.4%
viability, T/C [18]: 21.7%
viability, T/C [19]: 25.2%
viability, T/C [20]: 27.2%
viability, T/C [5]: 34.3%
viability, T/C [21]: 34.5%
viability, T/C [6]: 30.5%
viability, T/C [22]: 30.3%
viability, T/C [23]: 31.5%
viability, T/C [24]: 27.8%
viability, T/C [7]: 38.1%
viability, T/C [25]: 50.9%
viability, T/C [8]: 54.8%
viability, T/C [26]: 34.6%
viability, T/C [27]: 46.1%
viability, T/C [28]: 39.4%
viability, T/C [9]: 39.6%
viability, T/C [29]: 45%
viability, T/C [10]: 48.3%
viability, T/C [30]: 38%
viability, T/C [31]: 56.3%
viability, T/C [32]: 41.8%
viability, T/C [11]: 45.1%
viability, T/C [33]: 33.5%
viability, T/C [12]: 44.8%
viability, T/C [34]: 41.2%
viability, T/C [35]: 39.2%
viability, T/C [36]: 33.4%

CC(C)(O)C1CCC(Nc2ccc3ncc(-c4cccc(C(F)(F)F)c4)n3n2)CC1 (stereo not drawn) + Cc1[nH]c2ccc(F)cc2c1-c1nc2c3cccnc3c3ncccc3c2[nH]1
IC50 (second compound 0.0316 µM): > 10 µM
IC50 (second compound 0.1 µM): > 10 µM
IC50 (second compound 0.316 µM): > 10 µM
IC50 (second compound 1 µM): > 10 µM
IC50 (second compound 3.16 µM): > 10 µM
IC50 (second compound 10 µM): > 10 µM
viability, T/C [1]: 96.5%
viability, T/C [13]: 93.5%
viability, T/C [2]: 76.6%
viability, T/C [14]: 84.5%
viability, T/C [15]: 72.9%
viability, T/C [16]: 66.5%
viability, T/C [3]: 95.6%
viability, T/C [17]: 77%
viability, T/C [4]: 99.1%
viability, T/C [18]: 77.3%
viability, T/C [19]: 85%
viability, T/C [20]: 77.2%
viability, T/C [5]: 99.7%
viability, T/C [21]: 87.4%
viability, T/C [6]: 91.2%
viability, T/C [22]: 108%
viability, T/C [23]: 81.6%
viability, T/C [24]: 62.6%
viability, T/C [7]: 86.5%
viability, T/C [25]: 104%
viability, T/C [8]: 92.6%
viability, T/C [26]: 87.5%
viability, T/C [27]: 77.7%
viability, T/C [28]: 66.4%
viability, T/C [9]: 95.2%
viability, T/C [29]: 80.2%
viability, T/C [10]: 111%
viability, T/C [30]: 79.8%
viability, T/C [31]: 94.7%
viability, T/C [32]: 67%
viability, T/C [11]: 105%
viability, T/C [33]: 105%
viability, T/C [12]: 84.6%
viability, T/C [34]: 99.8%
viability, T/C [35]: 72.8%
viability, T/C [36]: 61.6%

CC1COCCN1c1cc(C2(S(C)(=N)=O)CC2)nc(-c2ccnc3[nH]ccc23)n1 (stereo not drawn) + CN(C)c1ccc(Nc2c3ccc(NC(=O)CCN4CCCC4)cc3nc3cc(NC(=O)CCN4CCCC4)ccc23)cc1
IC50 (second compound 0.0316 µM): > 10 µM
IC50 (second compound 0.1 µM): > 10 µM
IC50 (second compound 0.316 µM): > 10 µM
IC50 (second compound 1 µM): > 10 µM
IC50 (second compound 3.16 µM): > 10 µM
IC50 (second compound 10 µM): > 10 µM
viability, T/C [1]: 110%
viability, T/C [13]: 124%
viability, T/C [2]: 127%
viability, T/C [14]: 87.1%
viability, T/C [15]: 117%
viability, T/C [16]: 70.4%
viability, T/C [3]: 119%
viability, T/C [17]: 121%
viability, T/C [4]: 96.4%
viability, T/C [18]: 85.2%
viability, T/C [19]: 92.1%
viability, T/C [20]: 68.4%
viability, T/C [5]: 102%
viability, T/C [21]: 102%
viability, T/C [6]: 89%
viability, T/C [22]: 111%
viability, T/C [23]: 89.5%
viability, T/C [24]: 64.6%
viability, T/C [7]: 114%
viability, T/C [25]: 116%
viability, T/C [8]: 99.9%
viability, T/C [26]: 96.5%
viability, T/C [27]: 121%
viability, T/C [28]: 76.2%
viability, T/C [9]: 102%
viability, T/C [29]: 128%
viability, T/C [10]: 105%
viability, T/C [30]: 115%
viability, T/C [31]: 108%
viability, T/C [32]: 79.3%
viability, T/C [11]: 121%
viability, T/C [33]: 140%
viability, T/C [12]: 130%
viability, T/C [34]: 114%
viability, T/C [35]: 109%
viability, T/C [36]: 93.4%
